Reference: patent publication US20250019387A1 (Frontier Medicines Corporation, priority 0001, published 2025)

Target: KRAS G12C and cRAF (Ras-binding domain) interaction (Homo sapiens (Human), UniProt P01116, C118S/C51S/C80L/G12C)
Assay: Inhibition of KRAS G12C and cRAF binding (AlphaScreen)
Details: GMPPNP-loaded KRAS G12C, 19-20 hours incubation with compound; read-out: IC50 (Inhibition of KRAS G12C and cRAF Binding)
In short: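 IC50 values come from 4-parameter nonlinear regression of AlphaScreen signal (680 nm excitation, 570 nm emission). Compound plates sat 19-20 h at room temperature before RBD and donor/acceptor beads were added in Hepes pH 7.4 buffer with 150 mM NaCl, 5 mM MgCl2, 2% DMSO for 60-90 min; biotin-AviTag-GST replaced RBD to flag assay-technology interferers.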

KRAS G12C and cRAF (Ras-binding domain) interaction, sequence (P01116 other isoform, or with tags, fused parts or gaps G12C/C51S/C80L/C118S): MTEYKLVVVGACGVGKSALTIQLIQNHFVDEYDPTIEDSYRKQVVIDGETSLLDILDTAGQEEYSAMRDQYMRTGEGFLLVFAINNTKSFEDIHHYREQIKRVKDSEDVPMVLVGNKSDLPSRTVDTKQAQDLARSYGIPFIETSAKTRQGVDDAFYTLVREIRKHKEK

For `C=CC(=O)N1C[C@H](N(C)c2nc(OCC34CCCN3CCC4)nc3c(F)c(-c4cccc5cccc(Cl)c45)ncc23)CC1C#N` (stereo partly drawn) [Example 118, (4R)-1-acryloyl-4-((7-(8-chloronaphthalen-1-yl)-8-fluoro-2-((hexahydro-1H-pyrrolizin-7a-yl)methoxy)pyrido[4,3-d]pyrimidin-4-yl)(methyl)amino)pyrrolidine-2-carbonitrile], the IC50 was 10 to 100 nM.

Compound `C=CC(=O)N1C[C@H](N(C)c2nc(OCC34CCCN3CCC4)nc3c(F)c(-c4cccc5cccc(Cl)c45)ncc23)C[C@H]1CC#N` [Example 119, 2-((2S,4R)-1-acryloyl-4-((7-(8-chloronaphthalen-1-yl)-8-fluoro-2-((tetrahydro-1H-pyrrolizin-7a(5H)-yl)methoxy)pyrido[4,3-d]pyrimidin-4-yl)(methyl)amino)pyrrolidin-2-yl)acetonitrile] has an IC50 of 100 to 500 nM.

`CN(c1nc(OC[C@@]23CCCN2C[C@H](F)C3)nc2c1CCN(c1cccc3cccc(Cl)c13)C2)[C@@H]1CCN(C(=O)/C=C/c2nc(C3CC3)no2)C1` [Example 120, (E)-1-((R)-3-((7-(8-chloronaphthalen-1-yl)-2-(((2R,7aS)-2-fluorohexahydro-1H-pyrrolizin-7a-yl)methoxy)-5,6,7,8-tetrahydropyrido[3,4-d]pyrimidin-4-yl)(methyl)amino)pyrrolidin-1-yl)-3-(3-cyclopropyl-1,2,4-oxadiazol-5-yl)prop-2-en-1-one] showed an IC50 of 10 to 100 nM.

With `CN(c1nc(OC[C@@]23CCCN2C[C@H](F)C3)nc2c(F)c(-c3cccc4ccc(F)c(Cl)c34)ncc12)[C@@H]1CCN(C(=O)/C=C/C2CNCCO2)C1` (stereo partly shown) [Example 122] the IC50 was 100 to 500 nM.

`CN(c1nc(OC[C@@]23CCCN2C[C@H](F)C3)nc2c(F)c(-c3cccc4ccc(F)c(Cl)c34)ncc12)[C@@H]1CCN(C(=O)/C=C/C2COCCN2)C1` (stereo partly drawn) [Example 123, (E)-1-((R)-3-((7-(8-chloro-7-fluoronaphthalen-1-yl)-8-fluoro-2-(((2R,7aS)-2-fluorotetrahydro-1H-pyrrolizin-7a(5H)-yl)methoxy)pyrido[4,3-d]pyrimidin-4-yl)(methyl)amino)pyrrolidin-1-yl)-3-(morpholin-3-yl)prop-2-en-1-one] was tested, and the IC50 was 100 to 500 nM.

Compound `CN1CCCC1/C=C/C(=O)N1CC[C@@H](N(C)c2nc(OC[C@@]34CCCN3C[C@H](F)C4)nc3c(F)c(-c4cccc5ccc(F)c(Cl)c45)ncc23)C1` (stereo partly drawn) [Example 124, (E)-1-((R)-3-((7-(8-chloro-7-fluoronaphthalen-1-yl)-8-fluoro-2-(((2R,7aS)-2-fluorotetrahydro-1H-pyrrolizin-7a(5H)-yl)methoxy)pyrido[4,3-d]pyrimidin-4-yl)(methyl)amino)pyrrolidin-1-yl)-3-(1-methylpyrrolidin-2-yl)prop-2-en-1-one] has an IC50 of 10 to 100 nM.

`CN1CC(/C=C/C(=O)N2CC[C@@H](N(C)c3nc(OC[C@@]45CCCN4C[C@H](F)C5)nc4c(F)c(-c5cccc6ccc(F)c(Cl)c56)ncc34)C2)C1` [Example 127, (E)-1-((R)-3-((7-(8-chloro-7-fluoronaphthalen-1-yl)-8-fluoro-2-(((2R,7aS)-2-fluorotetrahydro-1H-pyrrolizin-7a(5H)-yl)methoxy)pyrido[4,3-d]pyrimidin-4-yl)(methyl)amino)pyrrolidin-1-yl)-3-(1-methylazetidin-3-yl)prop-2-en-1-one] gave an IC50 of 100 to 500 nM.

In the case of `CN(c1nc(OCC23CCCN2CCC3)nc2c1CCN(c1cccc3cccc(Cl)c13)C2)[C@@H]1CCN(C(=O)/C=C/c2nc(C3(C)CC3)no2)C1` [Example 128, (R,E)-1-(3-((7-(8-chloronaphthalen-1-yl)-2-((hexahydro-1H-pyrrolizin-7a-yl)methoxy)-5,6,7,8-tetrahydropyrido[3,4-d]pyrimidin-4-yl)(methyl)amino)pyrrolidin-1-yl)-3-(3-(1-methylcyclopropyl)-1,2,4-oxadiazol-5-yl)prop-2-en-1-one], the IC50 is reported as 100 to 500 nM.

`CN(c1nc(OCC23CCCN2CCC3)nc2c(F)c(-c3cccc4cccc(Cl)c34)ncc12)[C@@H]1CCN(C(=O)/C=C/c2nc([C@H]3C[C@@H]3F)no2)C1` [Example 129, (E)-1-((R)-3-((7-(8-chloronaphthalen-1-yl)-8-fluoro-2-((tetrahydro-1H-pyrrolizin-7a(5H)-yl)methoxy)pyrido[4,3-d]pyrimidin-4-yl)(methyl)amino)pyrrolidin-1-yl)-3-(3-((1R,2S)-2-fluorocyclopropyl)-1,2,4-oxadiazol-5-yl)prop-2-en-1-one] gave an IC50 of 10 to 100 nM.

For `CN(c1nc(OC[C@@]23CCCN2C[C@H](F)C3)nc2c(F)c(-c3cccc4cccc(Cl)c34)ncc12)[C@@H]1CCN(C(=O)/C=C/c2cn(C)cn2)C1` [Example 135, (E)-1-((R)-3-((7-(8-chloronaphthalen-1-yl)-8-fluoro-2-(((2R,7aS)-2-fluorohexahydro-1H-pyrrolizin-7a-yl)methoxy)pyrido[4,3-d]pyrimidin-4-yl)(methyl)amino)pyrrolidin-1-yl)-3-(1-methyl-1H-imidazol-4-yl)prop-2-en-1-one], the IC50 was 100 to 500 nM.

Compound `CC(C)c1noc(/C=C/C(=O)N2CC[C@@H](N(C)c3nc(OC[C@@]45CCCN4C[C@H](F)C5)nc4c3CCN(c3cccc5cccc(Cl)c35)C4)C2)n1` [Example 136, (E)-1-((R)-3-((7-(8-chloronaphthalen-1-yl)-2-(((2R,7aS)-2-fluorohexahydro-1H-pyrrolizin-7a-yl)methoxy)-5,6,7,8-tetrahydropyrido[3,4-d]pyrimidin-4-yl)(methyl)amino)pyrrolidin-1-yl)-3-(3-isopropyl-1,2,4-oxadiazol-5-yl)prop-2-en-1-one] has an IC50 of 10 to 100 nM.

In the case of `C=CC(=O)N1CC[C@@H](N(C)c2nc(OC[C@@]34CCCN3C[C@H](O)C4)nc3c(F)c(-c4cccc5cccc(Cl)c45)ncc23)C1` [Example 137, 1-((R)-3-((7-(8-chloronaphthalen-1-yl)-8-fluoro-2-(((2R,7aS)-2-hydroxytetrahydro-1H-pyrrolizin-7a(5H)-yl)methoxy)pyrido[4,3-d]pyrimidin-4-yl)(methyl)amino)pyrrolidin-1-yl)prop-2-en-1-one], the IC50 is reported as 10 to 100 nM.

With `Cc1nsc(/C=C/C(=O)N2CC[C@@H](N(C)c3nc(OCC45CCCN4CCC5)nc4c(F)c(-c5cccc6cccc(Cl)c56)ncc34)C2)n1` [Example 138, (R,E)-1-(3-((7-(8-chloronaphthalen-1-yl)-8-fluoro-2-((tetrahydro-1H-pyrrolizin-7a(5H)-yl)methoxy)pyrido[4,3-d]pyrimidin-4-yl)(methyl)amino)pyrrolidin-1-yl)-3-(3-methyl-1,2,4-thiadiazol-5-yl)prop-2-en-1-one] the IC50 was 10 to 100 nM.

Work on `CN(c1nc(OCC23CCCN2CCC3)nc2c1CCN(c1cccc3cccc(Cl)c13)C2)[C@@H]1CCN(C(=O)/C=C/c2nc([C@H]3C[C@@H]3F)no2)C1` [Example 141, (E)-1-((R)-3-((7-(8-chloronaphthalen-1-yl)-2-((hexahydro-1H-pyrrolizin-7a-yl)methoxy)-5,6,7,8-tetrahydropyrido[3,4-d]pyrimidin-4-yl)(methyl)amino)pyrrolidin-1-yl)-3-(3-((1R,2S)-2-fluorocyclopropyl)-1,2,4-oxadiazol-5-yl)prop-2-en-1-one] yielded an IC50 of 10 to 100 nM.

`Cc1coc(/C=C/C(=O)N2CC[C@@H](N(C)c3nc(OCC45CCCN4CCC5)nc4c(F)c(-c5cccc6cccc(Cl)c56)ncc34)C2)n1` [Example 143, (R,E)-1-(3-((7-(8-chloronaphthalen-1-yl)-8-fluoro-2-((tetrahydro-1H-pyrrolizin-7a(5H)-yl)methoxy)pyrido[4,3-d]pyrimidin-4-yl)(methyl)amino)pyrrolidin-1-yl)-3-(4-methyloxazol-2-yl)prop-2-en-1-one] was tested, and the IC50 was 100 to 500 nM.

In the case of `CN(c1nc(OCC23CCCN2CCC3)nc2c(F)c(-c3cccc4cccc(Cl)c34)ncc12)[C@@H]1CCN(C(=O)/C=C/c2nc(C(C)(C)C)no2)C1` [Example 147, (R,E)-3-(3-(tert-butyl)-1,2,4-oxadiazol-5-yl)-1-(3-((7-(8-chloronaphthalen-1-yl)-8-fluoro-2-((hexahydro-1H-pyrrolizin-7a-yl)methoxy)pyrido[4,3-d]pyrimidin-4-yl)(methyl)amino)pyrrolidin-1-yl)prop-2-en-1-one], the IC50 is reported as 10 to 100 nM.

`CN(c1nc(OC[C@@]23CCCN2C[C@H](F)C3)nc2c1CCN(c1cccc3cccc(Cl)c13)C2)[C@@H]1CCN(C(=O)/C=C/c2nc(C(C)(C)C)no2)C1` [Example 148, (E)-3-(3-(tert-butyl)-1,2,4-oxadiazol-5-yl)-1-((R)-3-((7-(8-chloronaphthalen-1-yl)-2-(((2R,7aS)-2-fluorohexahydro-1H-pyrrolizin-7a-yl)methoxy)-5,6,7,8-tetrahydropyrido[3,4-d]pyrimidin-4-yl)(methyl)amino)pyrrolidin-1-yl)prop-2-en-1-one] gave an IC50 of 100 to 500 nM.

Compound `CN(c1nc(OCC23CCCN2CCC3)nc2c1CCN(c1cccc3cccc(Cl)c13)C2)[C@@H]1CCN(C(=O)/C=C/c2nc(C(C)(C)C)no2)C1` [Example 149, (R,E)-3-(3-(tert-butyl)-1,2,4-oxadiazol-5-yl)-1-(3-((7-(8-chloronaphthalen-1-yl)-2-((hexahydro-1H-pyrrolizin-7a-yl)methoxy)-5,6,7,8-tetrahydropyrido[3,4-d]pyrimidin-4-yl)(methyl)amino)pyrrolidin-1-yl)prop-2-en-1-one] has an IC50 of 10 to 100 nM.

For `CN(CC1CN(C(=O)/C=C/c2nc(C(F)F)no2)C1)c1nc(OCC23CCCN2CCC3)nc2c1CCN(c1cccc3cccc(Cl)c13)C2` [Example 150, (E)-1-(3-(((7-(8-chloronaphthalen-1-yl)-2-((hexahydro-1H-pyrrolizin-7a-yl)methoxy)-5,6,7,8-tetrahydropyrido[3,4-d]pyrimidin-4-yl)(methyl)amino)methyl)azetidin-1-yl)-3-(3-(difluoromethyl)-1,2,4-oxadiazol-5-yl)prop-2-en-1-one], the IC50 was under 10 nM.
